Measured values: ChEMBL document CHEMBL5154942, “Discovery of Clinical Candidate NTQ1062 as a Potent and Bioavailable Akt Inhibitor for the Treatment of Human Tumors” (J Med Chem, 2022)
The source made the active and inactive calls. No cut-off for these calls is given here.

How the values were obtained:
[1] = Metabolic stability in CD-1 mouse liver microsomes assessed as parent compound remaining at 1 uM measured after 60 mins by UPLC-MS/MS analysis; format: ADME, Microsome; settings: read-out: Stability
[2] = system: LNCaP; test: Antitumor activity against human LNCaP cells xenografted in NCG mouse assessed as tumor growth inhibition at 25 mg/kg administered once daily for 18 to 21 days relative to control; format: functional; settings: time 18-21 day, read-out: TGI
[3] = system: LNCaP; test: Induction of apoptosis in human LNCaP cells assessed as apoptotic cells at […] incubated for 72 hrs by annexin V/PI double staining based flow cytometry method (reference value: 3.95 %); format: functional; settings: dose 2.5 µM
[4] = Metabolic stability in Beagle dog liver microsomes assessed as parent compound remaining at 1 uM measured after 60 mins by UPLC-MS/MS analysis; format: ADME, Canis lupus familiaris, Microsome; settings: read-out: Stability
[5] = AUC (0 to infinity) in Sprague-Dawley rat at 5 mg/kg, iv measured upto 24 hrs by UPLC-MS/MS analysis; format: ADME, organism-based; set-up: dose 5 mg/kg, time < 24 hrs, route iv; settings: in vivo
[6] = Half life in crab-eating monkey at 3 mg/kg, iv measured upto 24 hrs by UPLC-MS/MS analysis; format: ADME, organism-based, Macaca fascicularis; settings: cynomolgus monkey, in vivo
[7] = system: LNCaP; test: Induction of apoptosis in human LNCaP cells assessed as late apoptotic cells at 1.25 uM incubated for 72 hrs by annexin V/PI double staining based flow cytometry method (reference value: 2.75 %); format: functional
[8] = system: LNCaP; test: Induction of apoptosis in human LNCaP cells assessed as apoptotic cells incubated for 72 hrs by annexin V/PI double staining based flow cytometry method; format: functional, cell-based; settings: dose 0.62-2.5 µM, DDE = dose-dependent effect
[9] = molecular target: Cytochrome P450 2D6 (Homo sapiens, UniProt P10635); test: Inhibition of CYP2D6 in human liver microsomes at 0.01 to 30 uM using dextromethorphan as substrate in presence of NADPH by UPLC-MS/MS analysis; format: ADME, Microsome
[10] = system: LNCaP; test: In vivo antitumor activity against human LNCap cells xenografted in NCG mouse assessed as tumor growth inhibition at 50 mg/kg administered once daily for 18 to 21 days relative to control; format: functional; settings: time 18-21 day, read-out: TGI
[11] = Metabolic stability in Crab eating monkey liver microsomes assessed as parent compound remaining at 1 uM measured after 60 mins by UPLC-MS/MS analysis; format: ADME, Macaca fascicularis, Microsome; settings: cynomolgus monkey, read-out: Stability
[12] = system: LNCaP; test: Induction of cell cycle arrest in human LNCap cells assessed as accumulation at G0/G1 phase at 0.2 uM incubated for 24 hrs by flow cytometry (reference value: 58.60 %); format: functional
[13] = AUC (0 to t) in NCG mouse xenografted with human LNCaP cells at 50 mg/kg administered daily once for 18 to 21 days and measured upto 10 hrs post last dose by LC-MS/MS analysis; format: ADME, organism-based; set-up: dose 50 mg/kg, time 18-21 day; settings: in vivo
[14] = molecular target: Ribosomal protein S6 kinase alpha-4 (Homo sapiens) (UniProt O75676); test: Inhibition of MSK2 (unknown origin) at 1 uM in presence of ATP at Km concentration by mobility shift assay relative to control
[15] = molecular target: Cytochrome P450 3A4 (Homo sapiens, UniProt P08684); test: Inhibition of CYP3A4 in human liver microsomes at 0.01 to 30 uM […] in presence of NADPH by UPLC-MS/MS analysis; format: ADME, Microsome
[16] = Toxicity in NCG mouse xenografted with human LNCaP cells assessed as tolerability at 12.5 to 50 mg/kg administered for 18 days; format: organism-based; settings: in vivo, 432 h, dose 12.5-50 mg/kg, time 18 day
[17] = AUC (0 to infinity) in Sprague-Dawley rat at 10 mg/kg, ig by UPLC-MS/MS analysis; format: ADME, organism-based; set-up: time infinity, dose 10 mg/kg, route ig; settings: in vivo, po
[18] = AUC (0 to infinity) in overnight fasted ICR mouse at 10 mg/kg, po measured upto 24 hrs by UPLC-MS/MS analysis; format: ADME, organism-based; set-up: dose 10 mg/kg, time < 24 hrs, route po; settings: in vivo
[19] = Tmax in Sprague-Dawley rat at 10 mg/kg, ig by UPLC-MS/MS analysis; format: ADME, organism-based; settings: in vivo, po, time < 24 hrs
[20] = Bioavailability in crab-eating monkey at 6 mg/kg, ig by UPLC-MS/MS analysis; format: ADME, organism-based, Macaca fascicularis; settings: cynomolgus monkey, in vivo, po
[21] = Metabolic stability in Sprague-Dawley rat liver microsomes assessed hepatic clearance at 1 uM measured after 60 mins by LC-MS/MS analysis; format: ADME, Microsome; settings: 1 h
[22] = AUC (0 to t) in crab-eating monkey at 3 mg/kg, iv measured upto 24 hrs by UPLC-MS/MS analysis; format: ADME, organism-based, Macaca fascicularis; set-up: dose 3 mg/kg, time < 24 hrs, route iv; settings: cynomolgus monkey, in vivo
[23] = system: LNCaP; test: Induction of apoptosis in human LNCaP cells assessed as early apoptotic cells at […] incubated for 72 hrs by annexin V/PI double staining based flow cytometry method (reference value: […]); format: functional
[24] = AUC (0 to t) in crab-eating monkey at 6 mg/kg, ig by UPLC-MS/MS analysis; format: ADME, organism-based, Macaca fascicularis; set-up: dose 6 mg/kg, route ig; settings: cynomolgus monkey, in vivo, po
[25] = Metabolic stability in Sprague-Dawley rat liver microsomes assessed as half life at 1 uM measured after 60 mins by LC-MS/MS analysis; format: ADME, Microsome
[26] = Tmax in NCG mouse xenografted with human LNCaP cells at 12.5 mg/kg administered once daily for 18 to 21 days and measured upto 10 hrs post last dose by LC-MS/MS analysis; format: ADME, organism-based; settings: in vivo, time 18-21 day
[27] = Metabolic stability in Sprague-Dawley rat liver microsomes assessed as parent compound remaining at 1 uM measured after 60 mins by UPLC-MS/MS analysis; format: ADME, Microsome; settings: read-out: Stability
[28] = Apparent volume of distribution at steady state in crab-eating monkey at 3 mg/kg, iv measured upto 24 hrs by UPLC-MS/MS analysis; format: ADME, organism-based, Macaca fascicularis; settings: cynomolgus monkey, in vivo, read-out: Vdss(app)
[29] = AUC (0 to infinity) in crab-eating monkey at 3 mg/kg, iv measured upto 24 hrs by UPLC-MS/MS analysis; format: ADME, organism-based, Macaca fascicularis; set-up: dose 3 mg/kg, time < 24 hrs, route iv; settings: cynomolgus monkey, in vivo
[30] = system: LNCaP; test: Antitumor activity against human LNCaP cells xenografted in NCG mouse assessed as tumor growth inhibition at 12.5 mg/kg administered once daily for 18 to 21 days relative to control; format: functional; settings: time 18-21 day, read-out: TGI
[31] = molecular target: Cytochrome P450 2C19 (Homo sapiens, UniProt P33261); test: Inhibition of CYP2C19 in human liver microsomes at 0.01 to 30 uM using mephenytoin as substrate in presence of NADPH by UPLC-MS/MS analysis; format: ADME, Microsome
[32] = system: LNCaP; test: In vivo inhibition of AKT in human LNCaP cells xenografted in NCG mouse assessed as reduction in GSK-3beta phosphorylation at 25 to 50 mg/kg administered for 21 days and measured after 4 hrs post last dose by Western blot analysis; format: functional, organism-based; settings: dose lower […], dose upper 50.0 mg/kg, time 21.0 day
[33] = AUC (0 to t) in NCG mouse xenografted with human LNCaP cells at 25 mg/kg administered daily once for 18 to 21 days and measured upto 10 hrs post last dose by LC-MS/MS analysis; format: ADME, organism-based; set-up: time 18-21 day, dose 25 mg/kg; settings: in vivo
[34] = system: LNCaP; test: Induction of apoptosis in human LNCaP cells assessed as viable cells at […] incubated for 72 hrs by annexin V/PI double staining based flow cytometry method (reference value: 93.63 %); format: functional; settings: read-out: Activity

Sequence of Cytochrome P450 2C19 (P33261 whole entry): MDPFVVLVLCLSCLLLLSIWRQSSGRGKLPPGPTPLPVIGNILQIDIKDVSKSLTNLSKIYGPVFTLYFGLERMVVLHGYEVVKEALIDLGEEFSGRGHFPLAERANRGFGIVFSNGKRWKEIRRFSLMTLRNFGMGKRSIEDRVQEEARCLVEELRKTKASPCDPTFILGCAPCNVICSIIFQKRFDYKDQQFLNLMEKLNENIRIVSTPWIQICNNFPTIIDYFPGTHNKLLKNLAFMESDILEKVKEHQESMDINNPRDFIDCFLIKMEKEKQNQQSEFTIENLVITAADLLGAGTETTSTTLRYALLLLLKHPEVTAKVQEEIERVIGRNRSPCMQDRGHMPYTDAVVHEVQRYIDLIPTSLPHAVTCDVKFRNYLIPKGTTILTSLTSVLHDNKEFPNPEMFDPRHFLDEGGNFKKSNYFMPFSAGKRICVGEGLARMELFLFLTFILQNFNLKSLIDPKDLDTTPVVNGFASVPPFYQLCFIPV
Sequence of Cytochrome P450 3A4 (P08684 whole entry): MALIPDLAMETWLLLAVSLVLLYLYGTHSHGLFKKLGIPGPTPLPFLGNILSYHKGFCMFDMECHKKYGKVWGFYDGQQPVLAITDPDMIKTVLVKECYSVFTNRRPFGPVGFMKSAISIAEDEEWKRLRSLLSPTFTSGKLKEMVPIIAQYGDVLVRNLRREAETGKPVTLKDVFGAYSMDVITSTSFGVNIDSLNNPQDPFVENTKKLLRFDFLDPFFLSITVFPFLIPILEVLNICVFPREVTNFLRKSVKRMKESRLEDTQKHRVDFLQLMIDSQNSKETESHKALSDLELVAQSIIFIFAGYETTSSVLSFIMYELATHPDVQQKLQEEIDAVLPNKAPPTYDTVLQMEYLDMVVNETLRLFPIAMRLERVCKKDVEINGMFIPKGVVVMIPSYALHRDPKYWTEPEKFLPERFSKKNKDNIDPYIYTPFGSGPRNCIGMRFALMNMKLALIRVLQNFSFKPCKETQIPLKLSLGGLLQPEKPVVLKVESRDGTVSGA
Sequence of Cytochrome P450 2D6 (P10635 whole entry): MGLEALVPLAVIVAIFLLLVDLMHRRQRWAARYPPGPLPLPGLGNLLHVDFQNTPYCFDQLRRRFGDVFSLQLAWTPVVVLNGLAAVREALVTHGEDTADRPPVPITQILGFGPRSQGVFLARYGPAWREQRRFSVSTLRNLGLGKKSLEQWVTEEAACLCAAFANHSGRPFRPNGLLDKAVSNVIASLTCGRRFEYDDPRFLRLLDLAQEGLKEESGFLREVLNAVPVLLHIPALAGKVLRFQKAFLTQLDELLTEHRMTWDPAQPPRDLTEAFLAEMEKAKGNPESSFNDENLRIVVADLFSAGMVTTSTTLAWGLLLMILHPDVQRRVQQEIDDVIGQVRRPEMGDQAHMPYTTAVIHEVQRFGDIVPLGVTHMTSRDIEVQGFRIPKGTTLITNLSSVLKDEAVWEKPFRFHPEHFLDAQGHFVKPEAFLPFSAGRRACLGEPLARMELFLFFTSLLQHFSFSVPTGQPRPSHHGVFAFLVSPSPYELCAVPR
Sequence of Ribosomal protein S6 kinase alpha-4 (Homo sapiens) (O75676 whole entry, looked up): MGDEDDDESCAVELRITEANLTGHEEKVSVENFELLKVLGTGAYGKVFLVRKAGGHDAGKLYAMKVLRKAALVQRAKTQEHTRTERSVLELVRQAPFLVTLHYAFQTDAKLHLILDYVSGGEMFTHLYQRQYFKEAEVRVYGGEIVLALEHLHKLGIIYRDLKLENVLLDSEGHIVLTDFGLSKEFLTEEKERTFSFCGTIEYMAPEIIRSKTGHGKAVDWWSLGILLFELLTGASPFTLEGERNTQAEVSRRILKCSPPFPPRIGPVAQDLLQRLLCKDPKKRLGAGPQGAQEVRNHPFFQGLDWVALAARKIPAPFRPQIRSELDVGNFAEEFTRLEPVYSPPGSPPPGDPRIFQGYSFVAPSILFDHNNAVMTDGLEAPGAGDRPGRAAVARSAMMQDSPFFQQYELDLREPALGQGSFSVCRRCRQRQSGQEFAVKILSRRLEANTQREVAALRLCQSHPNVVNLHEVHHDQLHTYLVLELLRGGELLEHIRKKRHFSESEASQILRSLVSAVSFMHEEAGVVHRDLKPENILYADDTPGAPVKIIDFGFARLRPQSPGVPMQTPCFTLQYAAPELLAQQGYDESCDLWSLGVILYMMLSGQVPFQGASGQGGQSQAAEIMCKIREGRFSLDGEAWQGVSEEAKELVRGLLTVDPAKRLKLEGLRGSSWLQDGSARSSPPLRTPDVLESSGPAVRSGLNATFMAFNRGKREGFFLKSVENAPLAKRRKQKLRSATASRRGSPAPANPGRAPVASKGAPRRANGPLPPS

remaining at 1 h, 1 µM [1]: 92.3% | remaining at 1 h, 1 µM [4]: 53.6% | AUC(0-inf) [5]: 1800 ng·h/mL | half-life [6]: 7.73 h | IC50 [9]: 20.6 µM | remaining at 1 h, 1 µM [11]: 23.1% | AUC(0-t) [13]: 22000 ng·h/mL | inhibition [14]: 90% | IC50 [15]: 15.2 µM | AUC(0-inf) [17]: 3890 ng·h/mL | AUC(0-inf) [18]: 2170 ng·h/mL | Tmax [19]: 2 h | bioavailability [20]: 41.2% | CLH [21]: < 12.2 mL/min/kg | AUC(0-t) at 24 h [22]: 1780 ng·h/mL | AUC(0-t) [24]: 1480 ng·h/mL | half-life at 1 µM [25]: > 3.82 h | Tmax [26]: 2 h | remaining at 1 h, 1 µM [27]: 88.8% | Vd [28]: 8.36 L/kg | AUC(0-inf) [29]: 1880 ng·h/mL | IC50 [31]: > 50 µM | AUC(0-t) [33]: 13500 ng·h/mL
SMILES: CC(C)NC[C@@H](C(=O)N1CCN(c2ncnc3c2[C@H](C)CC(=O)N3)[C@H]2C[C@H]21)c1ccc(Cl)cc1
inhibition in vivo at 25 mg/kg [2]: 95.5% | Activity [3]: 38.97% | Activity [7]: 12.65% | Activity [8]: Dde | inhibition in vivo at 50 mg/kg [10]: 95.5% | Activity [12]: 82.42% | Activity [16]: Non-Toxic | Activity ([23]; dose 0.62 µM): 6.55% | Activity ([23]; dose 2.5 µM): 22.54% | inhibition in vivo at 12.5 mg/kg [30]: 84.1% | Activity [32]: Active | viability at […] ([34]; dose 0.62 µM): 79.7% | viability at […] ([34]; dose 2.5 µM): 55%
